Test results: publication PMC4491418, “Characterisation of Dermanyssus gallinae glutathione S-transferases and their potential as acaricide detoxification proteins” (Parasites & Vectors, 2015)

Key:
Assay type in all cases: biochemical
rDeg-GST-3 [1] = molecular target: T1, rDeg-GST-3 (Dermanyssus gallinae, UniProt A0A0H4FPP8); experiment: GSH-CDNB conjugation, A340nm; settings: 0-1 mM CDNB, 2 mM GSH, pH 6.5
T1 construct: full-length CDS (669 bp ORF, 222 aa) in pETSUMO; N-terminal His-tag and SUMO fusion kept; E. coli BL21-CodonPlus(DE3)-RIL; HisTrap purified
T1 sequence (A0A0H4FPP8 1-222): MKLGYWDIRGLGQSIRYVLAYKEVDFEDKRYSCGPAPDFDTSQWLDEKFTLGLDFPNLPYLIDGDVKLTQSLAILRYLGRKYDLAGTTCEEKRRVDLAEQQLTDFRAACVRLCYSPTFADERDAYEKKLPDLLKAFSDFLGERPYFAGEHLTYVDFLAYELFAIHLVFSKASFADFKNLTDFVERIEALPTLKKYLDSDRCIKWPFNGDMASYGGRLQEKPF

rDeg-GST-1 [2] = molecular target: T2, rDeg-GST-1 (Dermanyssus gallinae, UniProt A0A0H4FNI7); experiment: GSH-CDNB conjugation, A340nm; settings: 0-1 mM CDNB, 2 mM GSH, pH 6.5
T2 construct: full-length CDS (735 bp ORF, 244 aa) in pETSUMO; N-terminal His-tag and SUMO fusion kept; E. coli BL21-CodonPlus(DE3)-RIL; HisTrap purified
T2 sequence (A0A0H4FNI7 1-244): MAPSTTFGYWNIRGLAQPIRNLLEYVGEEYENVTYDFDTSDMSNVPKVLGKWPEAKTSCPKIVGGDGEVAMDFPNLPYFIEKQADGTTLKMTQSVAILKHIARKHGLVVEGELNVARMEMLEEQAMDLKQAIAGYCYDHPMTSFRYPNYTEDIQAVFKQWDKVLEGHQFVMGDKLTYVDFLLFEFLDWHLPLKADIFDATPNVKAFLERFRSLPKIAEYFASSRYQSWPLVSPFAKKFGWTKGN

rDeg-GST-2 [3] = molecular target: T3, rDeg-GST-2 (Dermanyssus gallinae, UniProt A0A0H4FKJ9); experiment: GSH-CDNB conjugation, A340nm; settings: 0-1 mM CDNB, 2 mM GSH, pH 6.5
T3 construct: full-length CDS (633 bp ORF, 210 aa) in pETSUMO; N-terminal His-tag and SUMO fusion kept; E. coli BL21-CodonPlus(DE3)-RIL; HisTrap purified
T3 sequence (A0A0H4FKJ9 1-210): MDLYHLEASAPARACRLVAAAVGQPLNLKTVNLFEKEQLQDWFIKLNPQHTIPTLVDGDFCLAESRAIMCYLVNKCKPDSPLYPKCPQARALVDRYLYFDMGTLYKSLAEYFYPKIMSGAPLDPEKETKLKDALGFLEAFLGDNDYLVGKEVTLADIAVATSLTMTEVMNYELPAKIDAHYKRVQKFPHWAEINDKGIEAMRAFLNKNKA

rDeg-GST-1 [4] = molecular target: T2, rDeg-GST-1; experiment: inhibition of GSH-CDNB conjugation, A340nm; settings: 100 µM; 1 mM CDNB, 2 mM GSH, pH 6.5 substrate buffer; 10 min preincubation at RT; mode not determined
Text: inhibition of GSH-CDNB conjugation, A340nm on rDeg-GST-1

rDeg-GST-3 [5] = molecular target: T1, rDeg-GST-3; experiment: inhibition of GSH-CDNB conjugation, A340nm; settings: 100 µM; 1 mM CDNB, 2 mM GSH, pH 6.5 substrate buffer; 10 min preincubation at RT; mode not determined
Text: inhibition of GSH-CDNB conjugation, A340nm on rDeg-GST-3

rDeg-GST-2 [6] = molecular target: T3, rDeg-GST-2; experiment: inhibition of GSH-CDNB conjugation, A340nm; settings: 100 µM; 1 mM CDNB, 2 mM GSH, pH 6.5 substrate buffer; 10 min preincubation at RT; mode not determined
Text: inhibition of GSH-CDNB conjugation, A340nm on rDeg-GST-2

Row | SMILES | GSH-CDNB conjugation, A340nm (rDeg-GST-3 [1]) | GSH-CDNB conjugation, A340nm (rDeg-GST-1 [2]) | GSH-CDNB conjugation, A340nm (rDeg-GST-2 [3]) | % reduction in Deg-GST activity ± SEM / rDeg-GST-1 (0.3 μg GST/well) (rDeg-GST-1 [4]) [%] | % reduction in Deg-GST activity ± SEM / rDeg-GST-3 (1.5 μg GST/well) (rDeg-GST-3 [5]) [%] | % reduction in Deg-GST activity ± SEM / rDeg-GST-2 (1.5 μg GST/well) (rDeg-GST-2 [6]) [%]
1 | O=[N+]([O-])c1ccc(Cl)c([N+](=O)[O-])c1 [1-chloro-2,4-dinitrobenzene] | All three rDeg-GSTs were enzymically-active molecules capable of catalyzing the conjugation of GSH to CDNB | All three rDeg-GSTs were enzymically-active molecules capable of catalyzing the conjugation of GSH to CDNB | All three rDeg-GSTs were enzymically-active molecules capable of catalyzing the conjugation of GSH to CDNB | – | – | –
2 | CC1(C)C(C=C(Cl)Cl)C1C(=O)OCc1cccc(Oc2ccccc2)c1 (stereo not shown) [Permethrin] | – | – | – | 35.39 ± 0.9 | – | –
3 | CCOP(=S)(OCC)ON=C(C#N)c1ccccc1 [Phoxim] | – | – | – | 56.38 ± 3.0 | 20.56 ± 2.5 | 14.8 ± 1.5
